Measurements from paper PMC6709497, “Identification of Novel Trypanosoma cruzi Proteasome Inhibitors Using a Luminescence-Based High-Throughput Screening Assay” (Antimicrobial Agents and Chemotherapy, 2019).
Like-named read-outs stand apart in the source and are kept apart here. Starred links: 1 amine or outer side, 2 acyl side, 3 side chain; linkers in the order of their positions; H or OH if unused. Non-standard residues stand in square brackets, D forms with d. Residues, ends and D or L forms follow the SMILES beside them. ξ: configuration not given here. *: point of attachment. aminoluciferin = aminoluciferin attached at the C-terminus (luminogenic reporter), O=C(O)[C@H]1CSC(c2nc3ccc(N*)cc3s2)=N1; Suc = O=C(CCC(=O)[*:2])[*:1]; Nva = CCC[C@H](N)C(=O)O; Cbz = O=C(OCc1ccccc1)*; ξL = CC(C)CC(N)C(=O)O

How the values were obtained:
[1] = biological target: T. cruzi proteasome trypsin-like activity (Trypanosoma cruzi, UniProt V5BCU3+V5BGL9); assay: Cell-free T. cruzi proteasome trypsin-like activity luminescence assay; type: biochemical; conditions: n = 4; 15 μM Z-Leu-Arg-Arg-aminoluciferin
From the text: The commercially available Proteasome-Glo 3-substrate system and chymotrypsin-like assay kits (Promega; catalogue no. G8531 and G8622, respectively) were assembled according to the manufacturers’ protocols ([29]) unless otherwise stated. Briefly, Proteasome-Glo buffer was used to formulate the luciferin detection reagent (containing a recombinant thermostable luciferase enzyme) to approximately 0.35% (wt/vol) final assay concentration. The luciferin detection reagent was then mixed with Proteasome-Glo trypsin-, caspase-, or chymotrypsin-like reagents (comprising 15 μM Z-Leu-Arg-Arg-aminoluciferin (Z is benzyloxycarbonyl), 20 μM Z-Nle-Pro-Nle-Asp-aminoluciferin, or 20 μM suc-Leu-Leu-Val-Tyr-aminoluciferin substrate, respectively, at final assay concentrations), and the mixture was allowed to incubate at room temperature for 60 min prior to use. T. cruzi proteasome buffer comprised 50 mM Tris-HCl, pH 7.5, 10 mM sucrose, 5 mM MgCl2, 1 mM dithiothreitol, 2 mM ATP, 150 mM NaCl, 1 mM EDTA, and 0.05 mg/ml bovine serum albumin (BSA). […] Biochemical cell-free assays were performed in an 8-μl final assay volume using 384-well white low-volume plates (Greiner; catalogue no. 784904), and cellular assays were performed in a 50-μl final assay volume using 384-well standard volume plates (Greiner; catalogue no. 781098). Luminescence was read using an EnVision 2102 Multilabel Reader (PerkinElmer, USA) with 0.2-s per well reading time, unless otherwise specified. DMSO or compound was added to the assay plates using Echo acoustic dispensers (Labcyte, USA). […] Z factor values were calculated using the following equation: Z factor = 1 − ({3 × [1.483 × (RLU MAD Max)]} + {3 × [1.483 × (RLU MAD Min)]})/(median RLU Max − median RLU Min), where MAD is the median absolute deviation, Max is the maximum-effect control samples, and Min is the minimum-effect control samples.
Next, 4 μl of luciferin detection and Proteasome-Glo chymotrypsin-, caspase-, or trypsin-like reagent mixtures were added to initiate the biochemical reaction. The reaction was allowed to proceed at room temperature for 60 min, after which the luminescence was read. […] Relative luminescence unit (RLU) data were normalized to percent inhibition values relative to 100% effect (DMSO, 1% [vol/vol] final assay concentration in the absence of T. cruzi proteasome enzyme) and 0% effect (DMSO, 1% [vol/vol] final assay concentration with T. cruzi proteasome enzyme) control populations using Microsoft Excel 2013 software. IC50 values were calculated by fitting the concentration-response data for each independent replicate separately to either a four-parameter logistic model or a seven-parameter logistic model with the bottom curve plateau parameter constrained to zero, as shown below. […]

[2] = tested on: T. cruzi strain Silvio X10/7 epimastigotes; assay: Cellular T. cruzi epimastigote viability assay; type: cell-based, Trypanosoma cruzi; conditions: 96 h; for EC50: Trypanosoma cruzi, read-out: Cellular pEC50 ± SD (converted)
Description: For the cell viability readout, BacTiter-Glo microbial cell viability reagent (Promega; catalogue no. G8230) was added to each well (25 μl) and incubated at room temperature for 5 min. The plates were then sealed with clear film, and the luminescence was read using a Victor 3 (PerkinElmer, USA) or Pherastar FS (BMG Labtech, Germany) plate reader with a 0.5-s per well reading time. Data for epoxomicin were obtained from three independent replicates (n = 3), and data for all the remaining compounds were acquired from four independent replicates (n = 4). RLU data were normalized to percent inhibition values relative to 100% effect (Nifurtimox) and 0% effect (DMSO; 1% [vol/vol] final assay concentration) control populations. Normalized data for each independent replicate were fitted separately to a four-parameter logistic regression model, and pEC50 {i.e., −log(EC50[M])} values were calculated using IBDS ActivityBase 8.1.2.12 software, after which a mean pEC50 value for each compound was calculated.

[3] = biological target: T. cruzi proteasome caspase-like activity (Trypanosoma cruzi, UniProt V5BHX1); assay: Cell-free T. cruzi proteasome caspase-like activity luminescence assay; type: biochemical; conditions: n = 4; 20 μM Z-Nle-Pro-Nle-Asp-aminoluciferin
From the text: (§1) The commercially available Proteasome-Glo 3-substrate system and chymotrypsin-like assay kits (Promega; catalogue no. G8531 and G8622, respectively) were assembled according to the manufacturers’ protocols ([29]) unless otherwise stated. Briefly, Proteasome-Glo buffer was used to formulate the luciferin detection reagent (containing a recombinant thermostable luciferase enzyme) to approximately 0.35% (wt/vol) final assay concentration. The luciferin detection reagent was then mixed with Proteasome-Glo trypsin-, caspase-, or chymotrypsin-like reagents (comprising 15 μM Z-Leu-Arg-Arg-aminoluciferin (Z is benzyloxycarbonyl), 20 μM Z-Nle-Pro-Nle-Asp-aminoluciferin, or 20 μM suc-Leu-Leu-Val-Tyr-aminoluciferin substrate, respectively, at final assay concentrations), and the mixture was allowed to incubate at room temperature for 60 min prior to use. T. cruzi proteasome buffer comprised 50 mM Tris-HCl, pH 7.5, 10 mM sucrose, 5 mM MgCl2, 1 mM dithiothreitol, 2 mM ATP, 150 mM NaCl, 1 mM EDTA, and 0.05 mg/ml bovine serum albumin (BSA). T. cruzi strain Silvio X10/7 epimastigotes were maintained in vitro at 28°C in RTH-fetal calf serum (FCS) culture medium (RPMI 1640 supplemented with 0.4% Trypticase peptone, 0.017 M HEPES, 25 μM hemin, 10% heat-inactivated FCS). Biochemical cell-free assays were performed in an 8-μl final assay volume using 384-well white low-volume plates (Greiner; catalogue no. 784904), and cellular assays were performed in a 50-μl final assay volume using 384-well standard volume plates (Greiner; catalogue no. 781098). Luminescence was read using an EnVision 2102 Multilabel Reader (PerkinElmer, USA) with 0.2-s per well reading time, unless otherwise specified. DMSO or compound was added to the assay plates using Echo acoustic dispensers (Labcyte, USA). Reagent addition for high-throughput screening assays was performed using an Xrd-384 liquid dispenser (FluidX, United Kingdom) and a BioFill Solo/Xrd-384 8-channel resin nozzle (0.5- to 200-μl) tubing cartridge (FluidX; catalogue no. 34-1003). Data analysis was performed using SigmaPlot 12.5 software unless otherwise stated. Z factor values were calculated using the following equation: Z factor = 1 − ({3 × [1.483 × (RLU MAD Max)]} + {3 × [1.483 × (RLU MAD Min)]})/(median RLU Max − median RLU Min), where MAD is the median absolute deviation, Max is the maximum-effect control samples, and Min is the minimum-effect control samples.
(§2) Next, 4 μl of luciferin detection and Proteasome-Glo chymotrypsin-, caspase-, or trypsin-like reagent mixtures were added to initiate the biochemical reaction. The reaction was allowed to proceed at room temperature for 60 min, after which the luminescence was read. Data were acquired from 4 independent replicates (n = 4). Relative luminescence unit (RLU) data were normalized to percent inhibition values relative to 100% effect (DMSO, 1% [vol/vol] final assay concentration in the absence of T. cruzi proteasome enzyme) and 0% effect (DMSO, 1% [vol/vol] final assay concentration with T. cruzi proteasome enzyme) control populations using Microsoft Excel 2013 software. IC50 values were calculated by fitting the concentration-response data for each independent replicate separately to either a four-parameter logistic model or a seven-parameter logistic model with the bottom curve plateau parameter constrained to zero, as shown below.
The four-parameter logistic model is as follows: y=Min+Max−Min/1+(x/IC50)^−Hillslope […]

[4] = tested on: proteasome chymotrypsin-like activity; set-up: method as in PMID 25308265; conditions: similar assay platform in a cellular system; read-out: Km, approximate value; cited from earlier work
T. cruzi proteasome = assay: Kinetic-parameter (Km) determination for chymotrypsin-like substrate; type: biochemical, Trypanosoma cruzi; conditions: 95% CI = 78.8 to 108.4 μM; 60-min reaction; n = 3; read-out: apparent steady-state Km
Description: Assay linearity and the optimal amount of T. cruzi proteasome for screening was determined by first serially diluting (1 in 2; CMF = 0.5) the proteasome stock solution in proteasome buffer to generate 10 additional concentrations. Next, 4 μl of each of the T. cruzi proteasome solutions was added to 4 μl of the luciferin detection and Proteasome-Glo chymotrypsin-like reagent mixture. Luminescence was read immediately and then every 90 s for 75 min. Data were acquired from 5 technical replicates (n = 5). To calculate the Michaelis constant (Km) and identify the optimal amount of chymotrypsin-like suc-Leu-Leu-Val-Tyr-aminoluciferin substrate for screening, the Proteasome-Glo chymotrypsin-like assay (Promega; catalogue no. G8622) luciferin detection reagent (comprising luciferase enzyme in Proteasome-Glo buffer) was prepared according to the manufacturers’ protocol ([29]). A 1,200 μM solution (600 μM final assay concentration) of the substrate was prepared and subsequently serially diluted (1 in 2; CMF = 0.5) using the luciferin detection reagent to generate 8 additional concentrations. Next, 4 μl of each of the luciferin detection and substrate solution mixtures was added to 4 μl of partially purified T. cruzi proteasome that was diluted 1 in 4 (CMF = 0.25) from the original stock using proteasome buffer. Luminescence was read immediately and then every 90 s for 75 min. […]

[5] = set-up: method as in PMID 28645201; conditions: cited from earlier work
[6] = biological target: T. cruzi proteasome chymotrypsin-like activity (Trypanosoma cruzi, UniProt V5BU39); assay: Cell-free T. cruzi proteasome chymotrypsin-like activity luminescence assay (commercial inhibitors); type: biochemical
From the text: as §1, with “T. cruzi strain Silvio X10/7 epimastigotes were maintained in vitro at 28°C in RTH-fetal calf serum (FCS) culture medium (RPMI 1640 supplemented with 0.4% Trypticase peptone, 0.017 M HEPES, 25 μM hemin, 10% heat-inactivated FCS).” left out
as §2
The four-parameter logistic model is as follows: y=Min+Max−Min/1+(x/IC50)^−Hillslope
The seven-parameter logistic model is as follows: y=(Max_1+{Min−Max_1/1+[(x/IC50_1)^Hillslope_1]})+(Max_2−{Max_2/1+[(x/IC50_2)^Hillslope_2]}) […]

[7] = BacTiter-Glo viability readout, n = 4 (epoxomicin n = 3)

Chain of T. cruzi proteasome trypsin-like activity (V5BGL9 entry or part of it): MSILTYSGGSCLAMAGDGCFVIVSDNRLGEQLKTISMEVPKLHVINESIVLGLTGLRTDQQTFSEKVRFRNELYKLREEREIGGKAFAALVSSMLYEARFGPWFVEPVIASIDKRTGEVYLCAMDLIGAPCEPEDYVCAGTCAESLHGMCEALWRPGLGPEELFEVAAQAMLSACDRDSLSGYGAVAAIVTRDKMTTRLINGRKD
Chain of T. cruzi proteasome trypsin-like activity (V5BCU3 entry or part of it): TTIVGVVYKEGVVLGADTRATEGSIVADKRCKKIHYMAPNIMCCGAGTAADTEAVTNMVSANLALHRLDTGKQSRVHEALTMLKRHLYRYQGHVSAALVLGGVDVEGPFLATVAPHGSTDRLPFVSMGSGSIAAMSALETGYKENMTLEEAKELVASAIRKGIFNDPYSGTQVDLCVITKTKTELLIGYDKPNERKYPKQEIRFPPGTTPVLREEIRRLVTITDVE
Chain of T. cruzi proteasome caspase-like activity (V5BHX1 entry or part of it): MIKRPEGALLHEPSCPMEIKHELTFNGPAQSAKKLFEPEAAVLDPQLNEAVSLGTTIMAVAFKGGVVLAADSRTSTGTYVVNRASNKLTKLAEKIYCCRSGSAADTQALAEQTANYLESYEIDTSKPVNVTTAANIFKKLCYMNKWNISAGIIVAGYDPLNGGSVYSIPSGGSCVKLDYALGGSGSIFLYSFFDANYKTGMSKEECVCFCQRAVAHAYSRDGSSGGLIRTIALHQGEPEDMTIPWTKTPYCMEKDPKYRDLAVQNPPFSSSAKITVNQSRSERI
Chain of T. cruzi proteasome chymotrypsin-like activity (V5BU39 entry or part of it): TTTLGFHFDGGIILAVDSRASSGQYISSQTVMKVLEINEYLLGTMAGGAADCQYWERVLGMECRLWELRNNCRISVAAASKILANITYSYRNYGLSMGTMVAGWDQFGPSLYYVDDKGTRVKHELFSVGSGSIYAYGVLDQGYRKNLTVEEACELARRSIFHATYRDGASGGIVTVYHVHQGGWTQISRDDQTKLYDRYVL
Chain of T. cruzi proteasome chymotrypsin-like activity (A0A2V2VW62 entry or part of it, further chain): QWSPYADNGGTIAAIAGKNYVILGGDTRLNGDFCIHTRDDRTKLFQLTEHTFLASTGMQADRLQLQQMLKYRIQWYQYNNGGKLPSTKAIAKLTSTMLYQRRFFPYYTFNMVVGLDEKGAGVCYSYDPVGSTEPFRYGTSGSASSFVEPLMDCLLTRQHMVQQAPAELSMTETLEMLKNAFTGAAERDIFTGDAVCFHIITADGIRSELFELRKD
Chain of T. cruzi proteasome chymotrypsin-like activity (V5C017 entry or part of it, further chain): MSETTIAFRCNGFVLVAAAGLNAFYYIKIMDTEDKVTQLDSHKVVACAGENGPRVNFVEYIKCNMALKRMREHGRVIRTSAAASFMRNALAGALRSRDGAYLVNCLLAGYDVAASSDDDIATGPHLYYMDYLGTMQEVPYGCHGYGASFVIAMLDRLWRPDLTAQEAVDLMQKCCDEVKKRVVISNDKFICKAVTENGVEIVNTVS

Row | Molecule | Cell-free pIC50 ± SD, Trypsin-like [1] | EC50 [2, 7] | Cell-free pIC50 ± SD, Caspase-like [3] | chymotrypsin-like activity dose-response curve shape [6] | further results
1 | CCC[C@@H](C=O)NC(=O)C(CC(C)C)NC(=O)[C@H](CC(C)C)NC(=O)OCc1ccccc1 (stereo partly drawn) [MG115] (Cbz-Leu-[ξL]-[Nva]-aldehyde) | 4.87 ± 0.09 M | 4370 nM | 4.91 ± 0.10 M |  | 
2 | succinyl-Leu-Leu-Val-Tyr-aminoluciferin (Suc-LLVY-aminoluciferin; SMILES CC(C)C[C@H](NC(=O)CCC(=O)O)C(=O)N[C@@H](CC(C)C)C(=O)N[C@H](C(=O)N[C@@H](Cc1ccc(O)cc1)C(=O)Nc1ccc2nc(C3=N[C@@H](C(=O)O)CS3)sc2c1)C(C)C) [suc-Leu-Leu-Val-Tyr-aminoluciferin, luminogenic chymotrypsin-like peptide substrate] |  |  |  |  | Km [4]: ~60 µM; Km (T. cruzi proteasome): 93.5 µM
3 | O=C(Cn1ccnc1[N+](=O)[O-])NCc1ccccc1 [Benznidazole, benznidazole] |  |  |  |  | treatment discontinuation rate due to side effects [5]: 10%
4 | oprozomib |  |  |  |  | Cellular pEC50 ± SD [2, 7]: 6.53 ± 0.32 M
5 | CC(C)C[C@H](NC(=O)CNC(=O)c1cc(Cl)ccc1Cl)B(O)O [Ixazomib, ixazomib] | 5.51 ± 0.07 M | 708 nM | 7.49 ± 0.17 M | biphasic | 
6 | CC(C)C[C@H](NC(=O)[C@H](Cc1ccccc1)NC(=O)c1cnccn1)B(O)O [Bortezomib, bortezomib] |  | 240 nM | 7.16 ± 0.13 M | biphasic | IC30 ([6]; concentration approximately equivalent to IC30, used for spiking test plates): ~4 nM; IC70 ([6]; concentration approximately equivalent to IC70, used for spiking test plates): ~79 nM
7 | CC[C@H](C)[C@H](NC(=O)[C@H]([C@@H](C)CC)N(C)C(C)=O)C(=O)N[C@H](C(=O)N[C@@H](CC(C)C)C(=O)[C@@]1(C)CO1)[C@@H](C)O [Epoxomicin, epoxomicin] | 6.10 ± 0.06 M |  | 5.85 ± 0.05 M |  | EC50 [2]: 63.1 nM
8 | CC(C)C[C@@H](C=O)NC(=O)[C@H](CC(C)C)NC(=O)[C@H](CC(C)C)NC(=O)OCc1ccccc1 [MG132] (Cbz-Leu-Leu-Leu-aldehyde) | 4.88 ± 0.14 M |  | 6.01 ± 0.09 M | biphasic | EC50 [2]: 2450 nM
